System: Plasmodium falciparum
Experiment: Antimalarial activity against synchronous ring stage Plasmodium falciparum 3D7 infected in human Erythrocyte assessed as inhibition of parasite growth incubated for 48 hrs by [3H]-hypoxanthine incorporation assay
Assay type: functional, organism-based
Settings: 3D7, Erythrocyte

SMILES	IC50 [µM]
C[C@@H]1CCC[C@H](C)N1c1nnc(S(=O)(=O)C2CCCCC2)o1	> 12.5
O=S(=O)(c1nnc(N2CCCCCC2)o1)C1CCCCC1	> 10
Cc1ccc(C)c(CS(=O)(=O)c2nnc(N3CCOCC3)o2)c1	12.4

System: Plasmodium falciparum
Experiment: Antimalarial activity against synchronous ring stage Plasmodium falciparum 3D7 infected in human Erythrocyte assessed as inhibition of parasite growth incubated for 96 hrs by [3H]-hypoxanthine incorporation assay
Assay type: functional, organism-based
Settings: 3D7, Erythrocyte

SMILES	IC50 [µM]
C[C@@H]1CCC[C@H](C)N1c1nnc(S(=O)(=O)C2CCCCC2)o1	0.08
O=S(=O)(c1nnc(N2CCCCCC2)o1)C1CCCCC1	0.09
Cc1ccc(C)c(CS(=O)(=O)c2nnc(N3CCOCC3)o2)c1	0.84

System: not listed separately
Experiment: Selectivity ratio of IC50 for antimalarial activity against synchronous ring stage Plasmodium falciparum 3D7 infected in human Erythrocyte assessed as inhibition of parasite growth incubated for 48 hrs by [3H]-hypoxanthine incorporation assay to IC50 for antimalarial activity against synchronous ring stage Plasmodium falciparum 3D7 infected in human Erythrocyte assessed as inhibition of parasite growth incubated for 48 hrs by [3H]-hypoxanthine incorporation assay
Assay type: functional
Settings: not given

SMILES	Ratio IC50
C[C@@H]1CCC[C@H](C)N1c1nnc(S(=O)(=O)C2CCCCC2)o1	>165
O=S(=O)(c1nnc(N2CCCCCC2)o1)C1CCCCC1	>114
Cc1ccc(C)c(CS(=O)(=O)c2nnc(N3CCOCC3)o2)c1	15

System: not listed separately
Experiment: Cytotoxicity against human NFF cells assessed as reduction in cell viability incubated for 72 hrs by SRB assay
Assay type: toxicity, cell-based
Settings: not given

SMILES	IC50 at 72 h [µM]
C[C@@H]1CCC[C@H](C)N1c1nnc(S(=O)(=O)C2CCCCC2)o1	> 100
O=S(=O)(c1nnc(N2CCCCCC2)o1)C1CCCCC1	> 100
Cc1ccc(C)c(CS(=O)(=O)c2nnc(N3CCOCC3)o2)c1	20.4

System: not listed separately
Experiment: Selectivity index, ratio of IC50 for cytotoxicity against human NFF cells to IC50 for antimalarial activity against synchronous ring stage Plasmodium falciparum 3D7 infected in human Erythrocyte assessed as inhibition of parasite growth incubated for 96 hrs
Assay type: toxicity, cell-based
Settings: read-out: Ratio IC50

SMILES	selectivity ratio at 96 h
C[C@@H]1CCC[C@H](C)N1c1nnc(S(=O)(=O)C2CCCCC2)o1	> 1670
O=S(=O)(c1nnc(N2CCCCCC2)o1)C1CCCCC1	> 1150
Cc1ccc(C)c(CS(=O)(=O)c2nnc(N3CCOCC3)o2)c1	24

System: Plasmodium falciparum
Experiment: Antimalarial activity against multidrug-resistant synchronous ring stage Plasmodium falciparum Dd2 infected in human Erythrocyte assessed as inhibition of parasite growth incubated for 48 hrs by [3H]-hypoxanthine incorporation assay
Assay type: functional, organism-based
Settings: not given

SMILES	IC50 [µM]
Cc1ccc(C)c(CS(=O)(=O)c2nnc(N3CCOCC3)o2)c1	13

System: Plasmodium falciparum
Experiment: Antimalarial activity against multidrug-resistant synchronous ring stage Plasmodium falciparum Dd2 infected in human Erythrocyte assessed as inhibition of parasite growth incubated for 96 hrs by [3H]-hypoxanthine incorporation assay
Assay type: functional, organism-based
Settings: not given

SMILES	IC50 [µM]
Cc1ccc(C)c(CS(=O)(=O)c2nnc(N3CCOCC3)o2)c1	0.57

System: not listed separately
Experiment: Selectivity ratio of IC50 for antimalarial activity against multidrug-resistant synchronous ring stage Plasmodium falciparum Dd2 infected in human Erythrocyte assessed as inhibition of parasite growth incubated for 48 hrs by [3H]-hypoxanthine incorporation assay to IC50 for antimalarial activity against multidrug-resistant synchronous ring stage Plasmodium falciparum Dd2 infected in human …
Assay type: functional
Settings: not given

SMILES	Ratio IC50
Cc1ccc(C)c(CS(=O)(=O)c2nnc(N3CCOCC3)o2)c1	23

System: Plasmodium falciparum
Experiment: Resistance index, ratio of IC50 for antimalarial activity against multidrug-resistant synchronous ring stage Plasmodium falciparum Dd2 infected in human Erythrocyte assessed as inhibition of parasite growth incubated for 96 hrs by [3H]-hypoxanthine incorporation assay to IC50 for antimalarial activity against synchronous ring stage Plasmodium falciparum 3D7 infected in human Erythrocyte assessed …
Assay type: toxicity, organism-based
Settings: not given

SMILES	Ratio IC50
Cc1ccc(C)c(CS(=O)(=O)c2nnc(N3CCOCC3)o2)c1	0.7

System: Plasmodium falciparum
Experiment: Antimalarial activity against synchronous ring stage Plasmodium falciparum 3D7 infected in human Erythrocyte assessed as inhibition of parasite growth incubated for 96 hrs supplemented with IPP by [3H]-hypoxanthine incorporation assay
Assay type: functional, organism-based
Settings: 3D7, Erythrocyte

SMILES	IC50 [µM]
Cc1ccc(C)c(CS(=O)(=O)c2nnc(N3CCOCC3)o2)c1	0.84

System: not listed separately
Experiment: Selectivity ratio of IC50 for antimalarial activity against synchronous ring stage Plasmodium falciparum 3D7 infected in human Erythrocyte assessed as inhibition of parasite growth incubated for 96 hrs supplemented with IPP by [3H]-hypoxanthine incorporation assay to IC50 for antimalarial activity against synchronous ring stage Plasmodium falciparum 3D7 infected in human Erythrocyte assessed as …
Assay type: functional
Settings: not given

SMILES	Ratio IC50
Cc1ccc(C)c(CS(=O)(=O)c2nnc(N3CCOCC3)o2)c1	1

System: not listed separately
Experiment: Metabolic stability in human liver microsomes assessed as half life
Assay type: ADME, Microsome
Settings: not given

SMILES	half-life [min]
O=S(=O)(c1nnc(N2CCCCCC2)o1)C1CCCCC1	68
Cc1ccc(C)c(CS(=O)(=O)c2nnc(N3CCOCC3)o2)c1	5

System: not listed separately
Experiment: Metabolic stability in mouse liver microsomes assessed as half life
Assay type: ADME, Microsome
Settings: not given

SMILES	half-life [min]
O=S(=O)(c1nnc(N2CCCCCC2)o1)C1CCCCC1	7
Cc1ccc(C)c(CS(=O)(=O)c2nnc(N3CCOCC3)o2)c1	3

System: not listed separately
Experiment: Apparent permeability of the compound in human Caco-2 cells across apical to basolateral side
Assay type: ADME, cell-based
Settings: not given

SMILES	Papp A→B [×10⁻⁶ cm/s]
Cc1ccc(C)c(CS(=O)(=O)c2nnc(N3CCOCC3)o2)c1	39

System: not listed separately
Experiment: Apparent half life in non fasted female BALB/c mouse at 100 mg/kg, po via gavage and measured upto 24 hrs by LC-MS analysis
Assay type: ADME, organism-based
Settings: in vivo, read-out: t1/2(app) (converted)

SMILES	half-life [min]
C[C@@H]1CCC[C@H](C)N1c1nnc(S(=O)(=O)C2CCCCC2)o1	96

System: not listed separately
Experiment: Cmax in non fasted female BALB/c mouse plasma at 100 mg/kg, po via gavage and measured upto 24 hrs by LC-MS analysis
Assay type: ADME, organism-based
Settings: not given

SMILES	Cmax [nM]
C[C@@H]1CCC[C@H](C)N1c1nnc(S(=O)(=O)C2CCCCC2)o1	310

System: not listed separately
Experiment: Tmax in non fasted female BALB/c mouse at 100 mg/kg, po via gavage and measured upto 24 hrs by LC-MS analysis
Assay type: ADME, organism-based
Settings: in vivo

SMILES	Tmax [min]
C[C@@H]1CCC[C@H](C)N1c1nnc(S(=O)(=O)C2CCCCC2)o1	30

System: not listed separately
Experiment: AUC (0 to t) in non fasted female BALB/c mouse plasma at 100 mg/kg, po via gavage and measured after 7.5 hrs by LC-MS analysis
Assay type: ADME, organism-based
Settings: not given

SMILES	AUC(0-t) at 7.5 h [µM·h]
C[C@@H]1CCC[C@H](C)N1c1nnc(S(=O)(=O)C2CCCCC2)o1	0.39

System: not listed separately
Experiment: AUC (0 to infinity) in non fasted female BALB/c mouse at 100 mg/kg, po via gavage and measured upto 24 hrs by LC-MS analysis
Assay type: ADME, organism-based
Settings: in vivo

SMILES	AUC(0-inf) [µM·h]
C[C@@H]1CCC[C@H](C)N1c1nnc(S(=O)(=O)C2CCCCC2)o1	0.41

System: not listed separately
Experiment: Chemical stability of the compound in 1:1 mixture of 6M aqueous hydrochloric acid/THF assessed as degradation measured over 20 hrs
Assay type: physicochemical
Settings: buffer

SMILES	Stability
C[C@@H]1CCC[C@H](C)N1c1nnc(S(=O)(=O)C2CCCCC2)o1	Stable
